Source: patent US20260062412A1, “NITROGEN-CONTAINING HETEROCYCLIC COMPOUND HAVING MYT1 INHIBITORY ACTIVITY” (CHUGAI SEIYAKU KABUSHIKI KAISHA, priority 2023, published 2026)
Counter-ions that a name gives are not always drawn.

Columns and labels:
MYT1 protein [1] = target: T1, MYT1 protein (Homo sapiens (Human), UniProt Q99640); experiment: Test for binding to ATP binding site of MYT1 (Kinase Tracer 178 / Eu-Anti-GST antibody TR-FRET); settings: ATP binding site of MYT1, 30 minutes at room temperature
T1 sequence (Q99640 whole entry): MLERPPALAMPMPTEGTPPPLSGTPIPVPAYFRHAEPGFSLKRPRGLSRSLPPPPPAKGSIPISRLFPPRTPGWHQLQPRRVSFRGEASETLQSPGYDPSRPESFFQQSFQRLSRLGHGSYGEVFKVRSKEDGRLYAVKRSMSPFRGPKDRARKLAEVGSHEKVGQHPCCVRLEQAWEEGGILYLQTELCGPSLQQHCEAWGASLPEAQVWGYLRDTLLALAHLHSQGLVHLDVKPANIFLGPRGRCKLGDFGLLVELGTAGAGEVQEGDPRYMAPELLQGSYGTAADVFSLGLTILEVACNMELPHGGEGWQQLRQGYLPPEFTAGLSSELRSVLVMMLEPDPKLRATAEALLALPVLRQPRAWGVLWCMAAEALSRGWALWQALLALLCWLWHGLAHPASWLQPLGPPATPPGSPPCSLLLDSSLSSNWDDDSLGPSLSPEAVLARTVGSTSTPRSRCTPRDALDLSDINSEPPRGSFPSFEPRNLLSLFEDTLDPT

LU65 = experiment: Cytotoxicity test with pemetrexed upon addition of each example compound (CellTiter-Glo); type: cell-based, human; settings: combination with pemetrexed, LU65 cells, 7 days; maximum value, at the MYT1 inhibitor and pemetrexed concentrations
Procedure: LU65 (received from human tissue bank (JCRB Cell Bank)) was used in the evaluation of the present invention. LU65 is a lung cancer cell line having a truncated deletion mutation of S82* in RB1 gene (see Nature. 2019 May; 569(7757): 503-508. (Non Patent Literature 22)), in which the function of RB1 is decreased. The cell culture was carried out using RPMI-1640 (manufactured by SIGMA) containing 10% FBS (manufactured by SIGMA).
Each pemetrexed (manufactured by Tokyo Kasei Kogyo Co., Ltd.) and each example compound of each concentration were diluted using a DMSO solution, and 0.04 μL of each of series of dilution and DMSO was added to each well of cell culture plate using Echo 555 Liquid Handler (manufactured by Beckman Coulter Inc.). 1000 LU65 cells ([…]) were added to each well, which was cultured at 37° C. in a 5% CO2 incubator for 7 days. Intracellular ATP level which is a cell survival marker was measured and used in the monitoring of cell number. After culturing, 20 μL of CellTiter-Glo (registered trademark) 2.0 (manufactured by Promega) was added to each well, and the emission intensity was measured using Multimode Plate Reader En Vision (registered trademark) Xcite (manufactured by PerkinElmer). The cell survival rate under each condition was calculated by setting the value obtained by subtracting the luminescence of the cell unseeded well from the luminescence of the DMSO-added well as 100%, and calculating the proportion of a value obtained by subtracting the luminescence of the cell unseeded well from the luminescence detected at each well.
In addition, the cytotoxic activity under each condition was calculated by subtracting the survival rate in a combination of pemetrexed of each treatment concentration and each example compound of each treatment concentration, from 100%.

MYT1 protein [2] = target: T1, MYT1 protein; experiment: MYT1 kinase activity inhibition test (ELISA, phosphorylation of Y15 of CDK1); type: biochemical; settings: phosphorylation level of Y15 of CDK1 protein caused by MYT1 protein, 60 minutes
Procedure: The MYT1 kinase activity inhibitory capacity of each compound was evaluated by evaluating the phosphorylation level of Y15 of CDK1 protein caused by MYT1 protein, by ELISA. The kit of CycLex Weel Kinase Assay/Inhibitor Screening Kit Ver. 3 (manufactured by MBL, CY-1172V3) was used. Using Kinase Buffer, 10 μL of 5 nM MYT1 protein (manufactured by Carna Biosciences, Inc.) was prepared. In addition, 30 μL of 83.3 μM of ATP was prepared using Kinase Buffer. In addition, 10 μL of each compound was diluted to each concentration using Kinase Buffer. 30 μL of ATP was added to the plate of the kit, and thereafter, 10 μL of each compound was added thereto. Further, 10 μL of the diluted MYT1 protein solution was added thereto, and then the mixture was mixed, which was allowed to stand at room temperature for 60 minutes. The reaction solution was removed from each well, and each well was washed using Wash Buffer. After Wash Buffer was removed, 100 μL of HRP conjugated Anti-phospho-tyrosine antibody was added to each well, which was allowed to stand at room temperature for 60 minutes. Thereafter, the reaction solution was removed from each well, and each well was washed using Wash Buffer. After Wash Buffer was removed, 100 μL of Substrate Reagent was added to each well, which was allowed to stand at room temperature for 8 minutes. Thereafter, 100 μL of Stop Solution (1 N sulfuric acid) was added to each well according to the manual. Absorbances at 450 nm and 590 nm were measured using Envision (manufactured by PerkinElmer). The phosphorylation level of CDK1 protein was evaluated for each well by subtracting the absorbance at 590 nm from the absorbance at 450 nm. The inhibition rate of each compound added at each concentration was calculated by setting the signal when the compound was not added as 100% and the signal when MYT1 protein was not added as 0%, and the calculation results of IC50 were shown in Table 4.

| IC50 (MYT1 protein [1]) | IC50 (MYT1 protein [2]) | Structure (SMILES) | Bliss Score (Max) (LU65) | HSA Score (MAX) (LU65) |
| --- | --- | --- | --- | --- |
| 19 nM | – | Cn1cnc2c3[nH]c(=O)c(N)c(-c4ccc(F)c5[nH]ncc45)c3cc(C3CC3)c21 [Compound M4, 7-Amino-4-cyclopropyl-6-(7-fluoro-1H-indazol-4-yl)-3-methyl-9H-imidazo[4,5-h]quinolin-8-one] | 51% | 60% |
| 58 nM | 1.1 nM | Nc1c(-c2cc(F)cc3[nH]ncc23)c2cc(Cl)ccc2[nH]c1=O [Compound A56, 3-Amino-6-chloro-4-(6-fluoro-1H-indazol-4-yl)-1H-quinolin-2-one] | – | – |
| 10 nM | < 4.6 nM | Nc1c(-c2cccc(O)c2)c2ccc3ncccc3c2[nH]c1=O [Compound C184, 3-Amino-4-(3-hydroxyphenyl)-1H-1,7-phenanthrolin-2-one; hydrobromide] | – | – |
| 19 nM | 0.32 nM | CP(C)(=O)c1cc2c(-c3ccc(F)c4[nH]ncc34)c(N)c(=O)[nH]c2c2ccccc12 [Compound B31, 3-Amino-6-dimethylphosphoryl-4-(7-fluoro-1H-indazol-4-yl)-1H-benzo[h]quinolin-2-one] | – | – |
| 13 nM | 0.61 nM | Nc1c(-c2ccc(F)c3[nH]ncc23)c2cc(Cl)ccc2[nH]c1=O [Compound A57, 3-Amino-6-chloro-4-(7-fluoro-1H-indazol-4-yl)-1H-quinolin-2-one] | – | – |
| 2.6 nM | – | N#C[C@H]1C[C@H](Oc2cc3c(-c4ccc(Cl)c5[nH]ncc45)c(N)c(=O)[nH]c3cc2Cl)C1 [Compound A12, (1r,3r)-3-[[3-Amino-7-chloro-4-(7-chloro-1H-indazol-4-yl)-2-oxo-1H-quinolin-6-yl]oxy]cyclobutane-1-carbonitrile] | 61% | 70% |
| 3.3 nM | – | Nc1c(-c2ccc(F)c3[nH]ncc23)c2cc(C3CC3)c3scnc3c2[nH]c1=O [Compound N2, 7-Amino-4-cyclopropyl-6-(7-fluoro-1H-indazol-4-yl)-9H-[1,3]thiazolo[5,4-h]quinolin-8-one] | 50% | 57% |
| 1.6 nM | – | COc1cc2c(-c3ccc(F)c4[nH]ncc34)c(N)c(=O)[nH]c2c2cc(F)cnc12 [Compound F2, 3-Amino-9-fluoro-4-(7-fluoro-1H-indazol-4-yl)-6-methoxy-1H-1,7-phenanthrolin-2-one] | 86% | 83% |
| 750 nM | 210 nM | Nc1c(-c2cccc(F)c2)c2ccc3ccccc3c2[nH]c1=O [Compound B50, 3-Amino-4-(3-fluorophenyl)-1H-benzo[h]quinolin-2-one; hydrochloride] | – | – |
| 6 nM | 5.7 nM | N#Cc1cc2c(-c3cccc(O)c3)c(N)c(=O)[nH]c2c2ccccc12 [Compound B7, 3-Amino-4-(3-hydroxyphenyl)-2-oxo-1H-benzo[h]quinoline-6-carbonitrile] | – | – |
| 140 nM | 5 nM | Nc1c(-c2ccc(C(F)(F)F)c3[nH]ncc23)c2cc(Cl)ccc2[nH]c1=O [Compound A61, 3-Amino-6-chloro-4-[7-(trifluoromethyl)-1H-indazol-4-yl]-1H-quinolin-2-one] | – | – |
| 10 nM | 0.37 nM | N#Cc1cc2c(-c3ccc(F)c4[nH]ncc34)c(N)c(=O)[nH]c2c2ccccc12 [Compound B26, 3-Amino-4-(7-fluoro-1H-indazol-4-yl)-2-oxo-1H-benzo[h]quinoline-6-carbonitrile] | – | – |
| 7 nM | 0.55 nM | Cc1ccc(-c2c(N)c(=O)[nH]c3ccc(Cl)cc23)c2cn[nH]c12 [Compound A60, 3-Amino-6-chloro-4-(7-methyl-1H-indazol-4-yl)-1H-quinolin-2-one] | – | – |
| 2.3 nM | – | Nc1c(-c2ccc(F)c3[nH]ncc23)c2cc(C3CC3)c3ccsc3c2[nH]c1=O [Compound L3, 7-Amino-4-cyclopropyl-6-(7-fluoro-1H-indazol-4-yl)-9H-thieno[3,2-h]quinolin-8-one] | 51% | 61% |
| 1.1 nM | – | Cc1nc2c(-c3ccc(F)c4[nH]ncc34)c(N)c(=O)[nH]c2c2cccnc12 [Compound O1, 3-Amino-4-(7-fluoro-1H-indazol-4-yl)-6-methyl-1H-pyrido[2,3-h][1,5]naphthyridin-2-one] | 37% | 44% |
| 2.7 nM | – | Cc1nc2c(C)cc3c(-c4ccc(F)c5[nH]ncc45)c(N)c(=O)[nH]c3c2s1 [Compound K4, 7-Amino-6-(7-fluoro-1H-indazol-4-yl)-2,4-dimethyl-9H-[1,3]thiazolo[4,5-h]quinolin-8-one] | 56% | 66% |
| 22 nM | – | Nc1c(-c2ccc(F)c3[nH]ncc23)c2cc(N3CCOCC3)c3cccnc3c2[nH]c1=O [Compound D9, 3-Amino-4-(7-fluoro-1H-indazol-4-yl)-6-morpholin-4-yl-1H-1,10-phenanthrolin-2-one] | – | – |
| 600 nM | – | CC(C)c1cc(Cl)cc2c(-c3ccc(Cl)c4[nH]ncc34)c(N)c(=O)[nH]c12 [Compound A19, 3-Amino-6-chloro-4-(7-chloro-1H-indazol-4-yl)-8-propan-2-yl-1H-quinolin-2-one] | – | – |
| 2.7 nM | – | Nc1c(-c2ccc(F)c3[nH]ncc23)c2cc(C3CC3)c3cnsc3c2[nH]c1=O [Compound H3, 7-Amino-4-cyclopropyl-6-(7-fluoro-1H-indazol-4-yl)-9H-[1,2]thiazolo[4,5-h]quinolin-8-one] | 61% | 61% |
| 15 nM | – | C=Cc1cc2c(-c3ccc(F)c4[nH]ncc34)c(N)c(=O)[nH]c2c2ccccc12 [Compound B30, 3-Amino-6-ethenyl-4-(7-fluoro-1H-indazol-4-yl)-1H-benzo[h]quinolin-2-one] | – | – |
| 7.7 nM | – | Nc1c(-c2cc(F)c(F)c3[nH]ncc23)c2cc(C3CCCC3)c3ncccc3c2[nH]c1=O [Compound C202, 3-Amino-6-cyclopentyl-4-(6,7-difluoro-1H-indazol-4-yl)-1H-1,7-phenanthrolin-2-one] | – | – |
| 270 nM | – | O=c1[nH]c2c(cc(Br)c3nccnc32)c(-c2ccc(F)c3[nH]ncc23)c1Cl [Compound G2, 5-Bromo-8-chloro-7-(7-fluoro-1H-indazol-4-yl)-10H-pyrido[2,3-f]quinoxalin-9-one] | – | – |
| 27 nM | – | Nc1c(-c2ccc(Cl)c3[nH]ncc23)c2cc(Cl)cc(Br)c2[nH]c1=O [Compound A17, 3-Amino-8-bromo-6-chloro-4-(7-chloro-1H-indazol-4-yl)-1H-quinolin-2-one] | – | – |
| 17 nM | – | CC(C)Cc1cc2c(-c3cc(F)c(F)c4[nH]ncc34)c(N)c(=O)[nH]c2c2cccnc12 [Compound C203, 3-Amino-4-(6,7-difluoro-1H-indazol-4-yl)-6-(2-methylpropyl)-1H-1,7-phenanthrolin-2-one] | – | – |
| 1.5 nM | – | Nc1c(-c2ccc(F)c3[nH]ncc23)c2cc(OC3CC(C(F)F)C3)c3ncccc3c2[nH]c1=O (stereo not drawn) [Compound C58, 3-Amino-6-[3-(difluoromethyl)cyclobutyl]oxy-4-(7-fluoro-1H-indazol-4-yl)-1H-1,7-phenanthrolin-2-one] | – | – |

| Structure (SMILES) | IC50 (MYT1 protein [1]) | IC50 (MYT1 protein [2]) | Bliss Score (Max) (LU65) | HSA Score (MAX) (LU65) |
| --- | --- | --- | --- | --- |
| CC(C)CCOc1cc2c(-c3ccc(F)c4[nH]ncc34)c(N)c(=O)[nH]c2c2cccnc12 [Compound C10, 3-Amino-4-(7-fluoro-1H-indazol-4-yl)-6-(3-methylbutoxy)-1H-1,7-phenanthrolin-2-one] | 2.3 nM | – | – | – |
